Test results reported in US12139499B2, “Heteroaryl compounds for treating Huntington's disease” (PTC THERAPEUTICS, INC., priority 2018, dated 2024).

System: Endogenous Huntingtin Protein
Experiment: Endogenous Huntingtin Protein Assay (ELISA-based MSD electrochemiluminescence)
Assay type: cell-based
Settings: Table 1
Outline: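 Sandwich MSD electrochemiluminescence immunoassay. Capture used MW1 (expanded polyglutamine) or MAB2166 antibody coated at 1 μg/mL overnight at 4 °C. Samples were bound overnight at 4 °C, then a rabbit monoclonal detection antibody and SULFO-TAG anti-rabbit, each at 0.25 μg/mL, were applied for 1 h at room temperature.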

Row | Structure (SMILES) | IC50 [nM]
1 | Cn1cc2cc(-c3ccc4nc(C5CCNCC5)sc4c3)cc(F)c2n1 [Compound 83, 6-(7-fluoro-2-methyl-2H-indazol-5-yl)-2-(piperidin-4-yl)-1,3-benzothiazole] | ≤ 100
2 | CCc1cc(-c2cc3sc(C4CCNCC4)nc3cn2)cc2cn(C)nc12 [Compound 75, 6-(7-ethyl-2-methyl-2H-indazol-5-yl)-2-(piperidin-4-yl)[1,3]thiazolo[4,5-c]pyridine] | 100 to 500
3 | Cc1cn2cc(-c3ccc4nc(C5CCNCC5)sc4c3)ccc2n1 [Compound 82, 6-(2-methylimidazo[1,2-a]pyridin-6-yl)-2-(piperidin-4-yl)-1,3-benzothiazole] | 100 to 500
4 | Cc1cn2nc(-c3cc(F)c4nc(C5CCNCC5)sc4c3)cc(C(N)=O)c2n1 [Compound 224, 6-[4-fluoro-2-(piperidin-4-yl)-1,3-benzothiazol-6-yl]-2-methylimidazo[1,2-b]pyridazine-8-carboxamide] | ≤ 100
5 | Cc1cn2cc(-c3cc4sc(N(C)C5CC(C)(C)NC(C)(C)C5)nc4cn3)cc(C)c2n1 [Compound 88, 6-(2,8-dimethylimidazo[1,2-a]pyridin-6-yl)-N-methyl-N-(2,2,6,6-tetramethylpiperidin-4-yl)[1,3]thiazolo[4,5-c]pyridin-2-amine] | ≤ 100
6 | CN(c1nc2cnc(-c3cc(C#N)c4nn(C)cc4c3)cc2s1)C1CC2CCC(C1)N2 (stereo not drawn) [Compound 206, 5-{2-[(3-exo)-8-azabicyclo[3.2.1]oct-3-yl(methyl)amino][1,3]thiazolo[4,5-c]pyridin-6-yl}-2-methyl-2H-indazole-7-carbonitrile] | ≤ 100
7 | Cc1cn2cc(-c3ncc4nc(N(C)[C@@H]5CC(C)(C)NC(C)(C)[C@@H]5F)sc4n3)cc(C#N)c2n1 [Compound 324, 6-(2-{[(3R,4R)-3-fluoro-2,2,6,6-tetramethylpiperidin-4-yl](methyl)amino}[1,3]thiazolo[5,4-d]pyrimidin-5-yl)-2-methylimidazo[1,2-a]pyridine-8-carbonitrile] | ≤ 100
